# Experimental data from patent publication US12162858B2, “Quinoline derivatives as inhibitors of AXL/MER RTK and CSF1R” (QURIENT CO., LTD., priority 2018, dated 2024).
# Read-outs that look alike come from different tables or passages of the source.
# Legend:
# [1] = biological target: CSF1R (Homo sapiens, UniProt P07333); assay: KINOMEscan competition binding assay for CSF1R; parameters: DNA tag for qPCR (not a peptide); host or cells: E. coli/T7 phage or HEK-293; conditions: for Kd: read-out: CSF1R kinase binding activity (Kd)
# Experimental: KINOMEscan™ is based on a competition binding assay that quantitatively measures the ability of a compound to compete with an immobilized, active-site directed ligand. The assay is performed by combining three components: DNA-tagged kinase; immobilized ligand; and a test compound. The ability of the test compound to compete with the immobilized ligand is measured via quantitative PCR of the DNA tag.
# E. coli were grown to log-phase and infected with T7 phage and incubated with shaking at 32° C. until lysis. The lysates were centrifuged and filtered to remove cell debris. The remaining kinases were produced in HEK-293 cells and subsequently tagged with DNA for qPCR detection. Streptavidin-coated magnetic beads were treated with biotinylated small molecule ligands for 30 minutes at room temperature to generate affinity resins for kinase assays. The liganded beads were blocked with excess biotin and washed with blocking buffer (SeaBlock (Pierce), 1% BSA, 0.05% Tween 20, 1 mM DTT) to remove unbound ligand and to reduce non-specific binding. Binding reactions were assembled by combining kinases, liganded affinity beads, and test compounds in 1× binding buffer (20% SeaBlock, 0.17×PBS, 0.05% Tween 20, 6 mM DTT). Test compounds were prepared as 111× stocks in 100% DMSO. Kds were determined using an 11-point 3-fold compound dilution series with three DMSO control points. All compounds for Kd measurements are distributed by acoustic transfer (non-contact dispensing) in 100% DMSO. The compounds were then diluted directly into the assays such that the final concentration of DMSO was 0.9%. In case of % inhibition, test compounds were prepared as 40× stocks in 100% DMSO and directly diluted into the assay. All reactions performed in polypropylene 384-well plate. Each was a final volume of 0.02 ml. The assay plates were incubated at room temperature with shaking for 1 hour and the affinity beads were washed with wash buffer (1×PBS, 0.05% Tween 20). The beads were then re-suspended in elution buffer (1×PBS, 0.05% Tween 20, 0.5 μM non-biotinylated affinity ligand) and incubated at room temperature with shaking for 30 minutes. The kinase concentration in the eluates was measured by qPCR.
# The CSF1R kinase binding activity results are shown in tables 1 (Kd) and 2 (percent inhibition at a concentration of 0.1 uM of compound to be tested).
# Binding constants (Kds) were calculated with a standard dose-response curve using the Hill equation: […]
# The Hill Slope was set to −1.
# Curves were fitted using a non-linear least square fit with the Levenberg-Marquardt algorithm.
# Binding % inhibition were calculated with as below:
# [formula] • negative control=DMSO (100% Ctrl) • positive control=control compound (0% Ctrl)
# [2] = biological target: T1, Axl (Homo sapiens, UniProt P30530); assay: LanthaScreen Eu kinase binding assay for Axl
# T1 sequence (P30530 26-894): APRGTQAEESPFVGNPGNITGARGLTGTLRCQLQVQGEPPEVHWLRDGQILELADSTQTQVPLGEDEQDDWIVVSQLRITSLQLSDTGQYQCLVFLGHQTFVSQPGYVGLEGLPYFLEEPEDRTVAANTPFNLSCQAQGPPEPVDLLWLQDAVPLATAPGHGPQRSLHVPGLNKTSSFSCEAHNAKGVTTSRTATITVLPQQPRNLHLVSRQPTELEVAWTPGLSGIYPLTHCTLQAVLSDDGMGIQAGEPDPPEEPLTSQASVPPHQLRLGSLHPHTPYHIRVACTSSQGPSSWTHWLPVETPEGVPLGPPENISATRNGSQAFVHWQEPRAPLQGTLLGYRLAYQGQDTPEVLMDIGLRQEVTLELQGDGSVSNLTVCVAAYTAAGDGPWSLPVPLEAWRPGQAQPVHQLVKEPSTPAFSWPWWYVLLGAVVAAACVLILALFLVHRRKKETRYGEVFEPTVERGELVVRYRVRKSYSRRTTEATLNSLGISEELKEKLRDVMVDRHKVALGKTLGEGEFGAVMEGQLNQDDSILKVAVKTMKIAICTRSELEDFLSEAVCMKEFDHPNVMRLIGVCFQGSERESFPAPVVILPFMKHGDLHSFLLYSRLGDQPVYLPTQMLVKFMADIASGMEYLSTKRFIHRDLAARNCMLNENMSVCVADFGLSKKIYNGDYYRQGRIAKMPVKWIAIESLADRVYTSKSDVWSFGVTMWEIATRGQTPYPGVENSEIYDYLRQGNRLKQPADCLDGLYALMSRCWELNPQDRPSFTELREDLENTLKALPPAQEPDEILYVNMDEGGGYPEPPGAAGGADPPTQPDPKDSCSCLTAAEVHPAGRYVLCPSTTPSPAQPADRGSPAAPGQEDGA
# Experimental: LanthaScreen® Eu Kinase Binding assays were conducted at Life Technologies using the manufacturer's specifications for each kinase indicated.
# Briefly, the principle behind this assay is based upon the binding and displacement of an Alexa Fluor 647-labeled tracer to the kinase of interest. Binding of the tracer to the kinase is detected using an EU-labeled anti-tag antibody. Simultaneous binding of both the tracer and antibody to the kinase gives rise to a FRET-signal. Binding of an inhibitor to the kinase competes for binding with the tracer, resulting in a loss of FRET-signal.
# A given compound was diluted in DMSO to make a stock compound solution. The stock compound solution was serially diluted over eight steps in DMSO. Each diluted compound solution in DMSO was diluted in kinase buffer. Afterwards four kinds of working solution were prepared. First, Tracer-Working solution consists of Tracer 236 and Kinase Buffer. Second, Axl, Mer, Tyro3 or Met/anti-GST-AB-Working solution contained one of the kinases Axl, and Mer or anti-GST-AB (=anti glutathione-S-transferase antibody) in Kinase Buffer. Third, anti-GST-AB-Working solution was made with anti-GST-AB and Kinase Buffer. Last, in the DMSO-Working solution DMSO was added to Kinase Buffer to a final concentration to 3%. Each of the four kinds of working solutions were separately added to the assay plate and then incubated for 1 h at room temperature. After incubation, the assay plate was measured with respect to the FRET-Signal with the EnVision (Perkin Elmer) using the program LanthaHTRF-Assay. Data evaluation was done in the Quattro Workflow software. Kd (the equilibrium dissociation constant) values were calculated relative to vehicle (DMSO) control wells.
# [3] = read-out: CSF1R kinase binding activity, Percent (%) inhibition
# [4] = read-out: CSF1R kinase binding activity, Range
# [5] = read-out: Axl kinase binding activity (Kd)
# [6] = comparison of compounds of present invention (**) vs compounds of WO2016/166250 (*), read-out: Binding activity Axl (Kd)
# CSF1R, sequence (P07333 20-972): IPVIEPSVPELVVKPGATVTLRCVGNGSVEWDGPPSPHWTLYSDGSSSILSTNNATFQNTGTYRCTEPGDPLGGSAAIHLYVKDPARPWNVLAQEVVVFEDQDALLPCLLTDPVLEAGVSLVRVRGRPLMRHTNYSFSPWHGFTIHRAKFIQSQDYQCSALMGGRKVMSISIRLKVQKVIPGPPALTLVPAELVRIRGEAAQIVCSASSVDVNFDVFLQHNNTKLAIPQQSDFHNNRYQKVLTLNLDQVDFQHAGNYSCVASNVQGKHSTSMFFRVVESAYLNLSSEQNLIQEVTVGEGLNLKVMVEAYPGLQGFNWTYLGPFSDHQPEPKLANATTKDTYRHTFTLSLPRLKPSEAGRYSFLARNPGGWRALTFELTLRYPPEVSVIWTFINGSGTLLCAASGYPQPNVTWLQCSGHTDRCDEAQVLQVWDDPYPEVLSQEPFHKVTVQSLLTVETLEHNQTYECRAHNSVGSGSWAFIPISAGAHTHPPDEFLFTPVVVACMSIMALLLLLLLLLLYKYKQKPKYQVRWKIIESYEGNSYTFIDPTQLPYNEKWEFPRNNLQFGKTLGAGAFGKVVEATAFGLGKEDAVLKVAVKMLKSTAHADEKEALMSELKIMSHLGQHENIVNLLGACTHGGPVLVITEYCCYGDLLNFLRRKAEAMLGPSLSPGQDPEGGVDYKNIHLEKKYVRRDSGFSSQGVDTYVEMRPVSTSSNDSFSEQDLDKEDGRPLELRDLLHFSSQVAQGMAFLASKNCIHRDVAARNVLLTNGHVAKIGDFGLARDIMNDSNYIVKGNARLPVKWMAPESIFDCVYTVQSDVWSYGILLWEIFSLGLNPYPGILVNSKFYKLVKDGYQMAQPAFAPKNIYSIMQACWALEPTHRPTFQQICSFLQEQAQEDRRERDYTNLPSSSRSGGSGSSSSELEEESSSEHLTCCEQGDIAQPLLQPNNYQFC
SMILES,"inhibition at 0.1 µM [1, 3] [%]","inhibition at 0.1 µM [1, 4] [%]","Kd [2, 5] [nM]",Kd [1] [nM],"Kd [2, 6] [nM]"
CNCCOc1cn(C2CC2)nc1C(=O)Nc1ccc(Oc2ccnc3cc(OC)c(OC)cc23)cn1 [Compound 141],23,< 50,≥ 500,,
CNCCn1cc(OCC(F)(F)F)c(C(=O)Nc2ccc(Oc3ccnc4cc(OC)c(OC)cc34)nc2)n1 [Compound 137],6,< 50,≥ 500,,
CNCCn1cc(OCC(F)(F)F)c(C(=O)Nc2ccc(Oc3ccnc4cc(OC)c(OC)cc34)cc2)n1 [Compound 119],9,< 50,100 to 500,,
COCCn1cc(OCC(F)(F)F)c(C(=O)Nc2ccc(Oc3ccnc4cc(OC)c(OC)cc34)cn2)n1 [Compound 10],98,≥ 80,< 100,< 100,3.2
CCCn1cc(OCC2CCOCC2)c(C(=O)Nc2ccc(Oc3ccnc4cc(OC)c(OC)cc34)cn2)n1 [Compound 164],73,50 to 80,< 100,,
CCCn1cc(NCCC(F)(F)F)c(C(=O)Nc2ccc(Oc3ccnc4cc(OC)c(OC)cc34)cn2)n1 [Compound 158],91,≥ 80,< 100,,
COc1cc2nccc(Oc3ccc(NC(=O)c4nn(CCN)cc4OCC(F)(F)F)nn3)c2cc1OC [Compound 125],38,< 50,≥ 500,,
COc1cc2nccc(Oc3ccc(NC(=O)c4nn(CC5COC5)cc4OCC(F)(F)F)nc3)c2cc1OC [Compound 92],100,≥ 80,< 100,,1.4
COc1cc2nccc(Oc3ccc(NC(=O)c4nn(C5CCN(C)C5)cc4OCC(F)(F)F)cc3F)c2cc1OC (stereo not shown) [Compound 96],57,50 to 80,< 100,,
COc1cc2nccc(Oc3ccc(NC(=O)c4nn(C5CCN(C)C5)cc4OCC(F)(F)F)cn3)c2cc1OC (stereo not shown) [Compound 133],9,< 50,100 to 500,,
CCCn1cc(OCC(F)(F)F)c(C(=O)Nc2ccc(Oc3ccnc4cc(OC)c(OC)cc34)nc2)n1 [Compound 139],37,< 50,< 100,,
CNCCn1cc(OCC(F)(F)F)c(C(=O)Nc2ccc(Oc3ccnc4cc(OC)c(OC)cc34)c(C)c2)n1 [Compound 156],49,< 50,100 to 500,,
COc1cc2nccc(Oc3ccc(NC(=O)c4nn(CCOC5CC5)cc4OCC(F)(F)F)cn3)c2cc1OC [Compound 130],41,< 50,< 100,,
COc1cc2nccc(Oc3ccc(NC(=O)c4nn(CC(C)O)cc4OC(C)C)nc3)c2cc1OC (stereo not shown) [Compound 151],97,≥ 80,< 100,,
COc1cc2nccc(Oc3ccc(NC(=O)c4nn(CCOC5CC5)cc4OCC(F)(F)F)cc3)c2cc1OC [Compound 118],93,≥ 80,< 100,,

# The remaining lines, values ahead:
"inhibition at 0.1 µM [1, 3] [%]","inhibition at 0.1 µM [1, 4] [%]","Kd [2, 5] [nM]",Kd [1] [nM],"Kd [2, 6] [nM]",SMILES
98,≥ 80,< 100,,,COc1cc2nccc(Oc3ccc(NC(=O)c4nn(C5CC5)cc4OCC(F)F)nc3)c2cc1OC [Compound 109]
96,≥ 80,< 100,,,COc1cc2nccc(Oc3ccc(NC(=O)c4nn(CC(C)O)cc4OCCF)nc3)c2cc1OC (stereo not shown) [Compound 152]
97,≥ 80,< 100,< 100,,CCn1cc(OC(C)C)c(C(=O)Nc2ccc(Oc3ccnc4cc(OC)c(OC)cc34)cn2)n1 [Compound 6]
47,< 50,< 100,,,CNCCn1cc(OCC(F)(F)F)c(C(=O)Nc2ccc(Oc3ccnc4cc(OC)c(OC)cc34)cc2F)n1 [Compound 154]
43,< 50,< 100,,,COc1cc2nccc(Oc3ccc(NC(=O)c4nn(C5CC5)cc4NCCC(F)(F)F)nn3)c2cc1OC [Compound 146]
94,≥ 80,< 100,,,COc1cc2nccc(Oc3ccc(NC(=O)c4nn(CC5COC5)cc4OCC(F)(F)F)cc3C)c2cc1OC [Compound 99]
72,50 to 80,< 100,,,COc1cc2nccc(Oc3ccc(NC(=O)c4nn(CC5COC5)cc4OCC(F)(F)F)nn3)c2cc1OC [Compound 123]
23,< 50,< 100,,,COc1cc2nccc(Oc3ccc(NC(=O)c4nn(CC(C)O)cc4OCC(F)(F)F)cn3)c2cc1OC (stereo not shown) [Compound 136]
9,< 50,< 100,,,COc1cc2nccc(Oc3ccc(NC(=O)c4nn(C5CCOC5)cc4OCC(F)(F)F)cn3)c2cc1OC (stereo not shown) [Compound 138]
95,≥ 80,< 100,,,COc1cc2nccc(Oc3ccc(NC(=O)c4nn(CCOC5CC5)cc4OCC(F)(F)F)nc3)c2cc1OC [Compound 153]
82,≥ 80,< 100,,,COc1cc2nccc(Oc3ccc(NC(=O)c4nn(C5CC5)cc4OCCF)nn3)c2cc1OC [Compound 113]
92,≥ 80,< 100,,,COc1cc2nccc(Oc3ccc(NC(=O)c4nn(C5CC5)cc4NCCC(F)(F)F)nc3)c2cc1OC [Compound 142]
46,< 50,< 100,,,COCCn1cc(OCC(F)(F)F)c(C(=O)Nc2ccc(Oc3ccnc4cc(OC)c(OC)cc34)nc2)n1 [Compound 104]
